Experimental data reported in article PMC4080980, “The pharmacokinetics of anthocyanins and their metabolites in humans” (British Journal of Pharmacology, 2014).
Marks after values point to notes of the source that are not given here.

How the values were obtained:
[1] = system: LPS-induced RAW 264.7 cells; parameters: method as in Min et al., 2010; settings: ref Min et al., 2010; cited from earlier work
[2] = system: vascular cell adhesion molecule-1 (VCAM-1); parameters: method as in Wang et al., 2010; settings: TNF-α-induced mouse aortic endothelial cells; ref Wang et al., 2010; cited from earlier work
[3] = Faecal recovery after 500 mg oral bolus of 13C5-C3G; type: in vivo, humans; settings: faeces, 500 mg oral 13C5-C3G; for Recovery 6–24 h / Recovery 24–48 h: mean ± SEM
Experimental: The study was conducted at the Clinical Research and Trials Unit at the University of East Anglia according to the principles expressed in the Declaration of Helsinki and was approved by the Cambridgeshire 3 Research Ethics Committee (REC ref: 10/H0306/42) and registered at clinicaltrials.gov as NCT01106729.
Sample extracts (5 μL) were injected onto a Kinetex PFP column (Phenomonex) and separated using an Agilent 1200 series HPLC with a QTrap 4000 linear ion trap mass spectrometer (ABSciex, Warrington, UK). […] Metabolite identification was performed by multiple reaction monitoring (MRM) optimized for the detection of pure standards with m/z of the parent and daughter fragments adjusted to +2,+3,+5 amu to allow identification of the ^13C-labelled metabolites derived from the B-ring, A-ring or the parent structure respectively. […] The HPLC-ESI-MS/MS method was validated for linearity and precision across all metabolites.
Pharmacokinetic parameters were established for each individual analyte and presented as mean ± SEM. Urine samples collected during the first 6 h post-bolus were grouped together to the nearest hour time point (i.e. samples were not pooled but individual concentrations were averaged post-quantification) for graphical representation and to calculate total cumulative recovery. The concentration of metabolites was converted to amount recovered from urine by accounting for the molecular weight of the individual ^13C-labelled metabolites and the volume of the individual participants void and averaged across participants. […] Urine and faecal recovery amounts are presented as mean ± SEM (n = 8), unless otherwise stated.

plasma VCAM-1 = system: plasma VCAM-1; parameters: method as in Wang et al., 2010; settings: mice fed PCA; ref Wang et al., 2010; cited from earlier work
[4] = Serum pharmacokinetics after 500 mg oral bolus of 13C5-C3G (HPLC-ESI-MS/MS, non-compartmental analysis); type: in vivo, humans; settings: serum; for half-life: serum elimination half-life; for half-life / Tmax / Cmax / AUC(0-t): single 500 mg oral 13C5-C3G; for half-life / Tmax / AUC(0-t): mean ± SEM; for Tmax: read-out: tmax; for Cmax: healthy men, mean ± SEM of participants in whom detected; for AUC(0-t): trapezoidal rule, read-out: AUC0-48
Experimental: (§1) A detailed description of the clinical design was previously published ([Czank et al., 2013]). Briefly, a single 500 mg oral bolus dose of isotopically labelled C3G (^13C5-C3G) was fed to eight healthy male participants (body mass index, 18.5–30.5 kg·m^–2; aged 18–45 years) after an overnight fast (>8 h). Participants provided blood (baseline, 0.5, 1, 2, 4, 6, 24, 48 h), urine (individual voids between 0 and 6 h, total voids between 6–24 and 24–48 h), breath (baseline, 0.5, 1, 2, 4, 6, 24, 48 h) and faecal samples (all voids between 0–6, 6–24 and 24–48 h). The study was conducted at the Clinical Research and Trials Unit at the University of East Anglia according to the principles expressed in the Declaration of Helsinki and was approved by the Cambridgeshire 3 Research Ethics Committee (REC ref: 10/H0306/42) and registered at clinicaltrials.gov as NCT01106729.
(§2) Serum, urine and faecal samples were extracted by SPE and analysed by HPLC-ESI-MS/MS as recently described ([Czank et al., 2013]). The extraction efficiency was established as 87 ± 11% (coefficient of variation, CV; 6.8 ± 0.7%) for serum, 88 ± 18% (CV, 7.9 ± 0.8%) for urine and 81 ± 21% (CV, 14.1 ± 1.2%) for faeces (n = 3 replicates for each analyte). Sample extracts (5 μL) were injected onto a Kinetex PFP column (Phenomonex) and separated using an Agilent 1200 series HPLC with a QTrap 4000 linear ion trap mass spectrometer (ABSciex, Warrington, UK). […] Metabolite identification was performed by multiple reaction monitoring (MRM) optimized for the detection of pure standards with m/z of the parent and daughter fragments adjusted to +2,+3,+5 amu to allow identification of the ^13C-labelled metabolites derived from the B-ring, A-ring or the parent structure respectively. Metabolites were confirmed on the basis of retention time (using authentic and synthesized standards where possible) and three or more ion transitions. The HPLC-ESI-MS/MS method was validated for linearity and precision across all metabolites. Six point standard curves ranging from 1.25 to 20 μM were constructed from analytical standards and injected six times. The precision was established as 1.4–11.0% and linearity of the standard curves was established as r^2 = 0.991–1.000 (CV, 0.2%) across the identified metabolites.
(§3) Pharmacokinetic modelling of metabolites in the serum was performed with the PKSolver ‘add-on’ for Excel 2010 (Microsoft, […], USA) ([Zhang et al., 2010]) using non-compartmental analysis with the AUC calculated using the trapezoidal rule. Pharmacokinetic parameters were established for each individual analyte and presented as mean ± SEM. Urine samples collected during the first 6 h post-bolus were grouped together to the nearest hour time point (i.e. samples were not pooled but individual concentrations were averaged post-quantification) for graphical representation and to calculate total cumulative recovery. The concentration of metabolites was converted to amount recovered from urine by accounting for the molecular weight of the individual ^13C-labelled metabolites and the volume of the individual participants void and averaged across participants. Recovery of metabolites in the faeces was established from the molecular weight of the ^13C-labelled metabolite and the weight of the individual participants void adjusting for faecal water content as previously described ([Czank et al., 2013]). Urine and faecal recovery amounts are presented as mean ± SEM (n = 8), unless otherwise stated.

[5] = Urinary elimination/recovery after 500 mg oral bolus of 13C5-C3G; type: in vivo, humans; settings: urine, single 500 mg oral 13C5-C3G; for Tmax: male, human, po, 500 mg, urine collection interval, read-out: Time at maximum concentration; for Total recovery: 0-48 h; for Total recovery / Maximum concentration: mean ± SEM
Experimental: as §1, §2, §3

[6] = parameters: method as in Czank et al., 2013; settings: ref Czank et al., 2013, cited from earlier work
plasma IL-6 = system: plasma IL-6; parameters: method as in Kim et al., 2010; settings: vanillic acid fed mice; ref Kim et al., 2010; cited from earlier work

| SMILES | production of TNF-α, IL-1β, NO, PGE2 and gene expression of NOS and COX-2 [1] | VCAM-1 protein and mRNA [2] | Recovery 6–24 h [3] | Recovery 6–24 h ([3]; listed as PCA) | Recovery 24–48 h [3] | plasma VCAM-1 levels (plasma VCAM-1) | half-life ([4]; male, human, po, 500 mg) | Tmax ([4]; male, human, po, 500 mg) | Cmax ([4]; male, human, po, 500 mg) | AUC(0-t) ([4]; male, human) | Cmax [4] | Tmax [5] | Total recovery [5] | Maximum concentration [5] | Recovery 0–6 h ([3]; 0–6 h (only 2 participants provided voids)) | relative bioavailability ([6]; based on recovery of the 13C-label in urine and breath) | recovered 13C-label in faeces [6] | recovery of the initial dose of 13C within the urine sample [6] | share of the total metabolites found in the circulation ([4]; 500 mg oral 13C5-C3G) | plasma IL-6 (plasma IL-6) |
| --- | --- | --- | --- | --- | --- | --- | --- | --- | --- | --- | --- | --- | --- | --- | --- | --- | --- | --- | --- | --- |
| O=C(O)c1ccc(O)c(O)c1 [Protocatechuic acid (PCA), Protocatechuic acid] | suppress | reduce | 360.9 ± 278.1 ^c μg | 360.9 µg | 221.8 ± 134.9 ^d μg | reduced | 9.9 ± 3.4 h | 3.3 ± 0.7 h | 147 nM | 1.38 ± 0.76 µM·h | 146 ± 74 nM | 1 to 2 h | 71.6 ± 20.9 µg | 337 ± 117 nM | – | – | – | – | – | – |
| O=Cc1c(O)cc(O)cc1O [Phloroglucinaldehyde] | – | – | 2.1 ± 1.3 ^e μg | – | 111.3 ± 78.7 ^f μg | – | – | 2.8 ± 1.1 h | 582 ± 536 nM | 7.88 ± 7.77 µM·h | – | 6 to 24 h | 66.7 ± 21.3 µg | 170 ± 42 nM | – | – | – | – | – | – |
| O=C(O)c1ccc(OC2OC(C(=O)O)C(O)C(O)C2O)cc1 (stereo not drawn) [Benzoic acid-4-glucuronide] | – | – | 6.8 ± 3.0 ^c μg | – | 14.8 ± 8.0 ^i μg | – | 17.1 ± 3 h | 10.9 ± 3.4 h | 74 ± 20 nM | 1.47 ± 0.489 µM·h | – | 4 to 5 h | 53.1 ± 18.1 µg | 129 ± 47 nM | 1.5 ^b μg | – | – | – | – | – |
| OCC1OC(Oc2cc3c(O)cc(O)cc3[o+]c2-c2ccc(O)c(O)c2)C(O)C(O)C1O (stereo not drawn) [Cyanidin-3-glucoside, 6,8,10,3′,5′-^13C5-cyanidin-3-glucoside] | – | – | 70.0 ^b μg | – | 19.6 ^b μg | – | 0.4 h | 1.8 ± 0.2 h | 141 ± 70 nM | 0.279 ± 0.17 µM·h | – | 1 to 2 h | 120.0 ± 54.1 µg | 334 ± 145 nM | – | 12.4 ± 1.4% | 32 ± 6% | 12% | 2% | – |
| COc1cc(C(=O)O)ccc1O [Vanillic acid (VA), Vanillic acid] | – | – | 54.7 ± 1.6 ^h μg | – | 49.3 ± 21.4 ^g μg | – | 6.4 h | 12.5 ± 11.5 h | 1840 ± 838 nM | – | – | 1 to 2 h | 960.4 ± 350.0 µg | 3412 ± 312 nM | – | – | – | – | – | reductions |
| COC(=O)c1ccc(O)c(O)c1 [Methyl-3,4-dihydroxybenzoate] | – | – | 166.6 ± 100.6 ^g μg | – | 92.4 ± 49.4 ^f μg | – | 21.6 ± 5.9 h | 8.4 ± 5.7 h | 12 ± 5 nM | 0.171 ± 0.07 µM·h | – | 3 to 4 h | 20.7 ± 8.0 µg | 108 ± 39 nM | – | – | – | – | – | – |
